Here are results for 14 compounds from US9115073B2, “1,3-diphenylpropane derivatives, preparations and uses thereof” (GENFIT, priority 2011, dated 2015).

Holding throughout (format): cell-based
One assay addresses T1, hPPARgamma (Homo sapiens, UniProt P37231).
T1 construct: Gal4-hPPARγ(LBD); Gal4 (fusion partner); expressed in transfected cells; host or cells: COS-7 (monkey kidney)
T1 sequence (P37231 238-503 limits assumed): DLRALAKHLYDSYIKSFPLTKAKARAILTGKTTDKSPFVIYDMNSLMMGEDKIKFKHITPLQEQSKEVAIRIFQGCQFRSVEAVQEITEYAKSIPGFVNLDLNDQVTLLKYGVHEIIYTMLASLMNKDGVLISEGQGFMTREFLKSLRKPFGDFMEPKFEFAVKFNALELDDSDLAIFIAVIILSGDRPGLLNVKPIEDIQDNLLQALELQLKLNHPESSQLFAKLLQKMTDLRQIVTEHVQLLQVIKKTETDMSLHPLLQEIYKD
Description: Gal4-hPPARgamma transactivation assay in COS-7 cells (luciferase). The settings on record: for Emax: COS-7, maximal relative activation vs reference, read-out: Gal4-hPPARγ(LBD) TOP (% ref); for EC50: Gal4-hPPARγ(LBD) transactivation; for Gal4-hPPARγ(LBD) TOP (% ref): maximal relative activation vs reference. How it is done:
(§1) Monkey kidney COS-7 cells were maintained in standard culture conditions (Dulbecco's modified Eagle's minimal medium: DMEM) supplemented with 10% fetal calf serum, 1% sodium pyruvate, 1% essential amino acids and 1% antibiotics at 37° C. in a humidified atmosphere of 5% C02 and 95% air. The medium was changed every 2 days. All tested compounds were dissolved in DMSO. Cells were transfected using 2 μl JetPEI™ (Polyplus transfection)/μg of DNA. Briefly, 40 μg of DNA was transfected in a 225 cm^2 culture flask of adherent COS-7 cells (respecting the 1/50 ratio between the Gal4(RE)_TkpGL3 plasmid and the plasmid coding the nuclear receptor of interest (pGal4-hPPARalpha, pGal4-hPPARgamma, pGal4-hPPARdelta, pGal4-mPPARalpha, pGal4-mPPARgamma and pGal4-mPPARdelta) or of the pGal4phi plasmid (negative control). Cells were enzymatically detached and seeded in 384 well plates at the density of 20,000 cells/well and then incubated for 4 hours at 37° C. The activation was automatically performed, by using the Genesis Freedom 200™ (Tecan), in fresh medium supplemented with 2% of synthetic serum, free of lipids (Ultroser™, Biosepra) supplemented with the tested compounds (compound of interest or reference molecules) or vehicle (DMSO 0.1%). The luciferase activity was measured with the Steady-Glo Luciferase Assay System (Promega, Madison, Wis.). All transactivation experiments were performed at least 2 times. Activation curves were realized using SigmaPlot® (version 7.0 from SPSS Inc.) software and took into account all the experimental points. SimgaPlot® was also used to fit the standard curves and then determine the specific EC50 values, maximum effect versus reference molecules and Hill slope. The Emax effect of each new ligand is represented as the ratio of the maximal induction (plateau) obtained with the new ligand and the induction obtained with the corresponding reference compound. The reference compounds for PPARalpha, PPARgamma and PPARdelta were fenofibrate (100 μM), rosiglitazone (10 μM) and GW501516 (1 μM).

The next assay addresses T2, hPPARdelta (Homo sapiens, UniProt Q03181).
T2 construct: Gal4-hPPARδ(LBD); Gal4 (fusion partner); expressed in transfected cells; host or cells: COS-7 (monkey kidney)
T2 sequence (Q03181 211-439 limits assumed): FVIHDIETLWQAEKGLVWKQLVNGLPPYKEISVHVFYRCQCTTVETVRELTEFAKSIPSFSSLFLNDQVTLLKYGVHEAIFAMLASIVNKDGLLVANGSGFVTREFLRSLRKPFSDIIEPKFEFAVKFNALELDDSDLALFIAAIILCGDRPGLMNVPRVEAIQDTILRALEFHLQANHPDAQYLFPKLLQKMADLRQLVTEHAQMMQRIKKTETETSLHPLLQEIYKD
Put plainly: Gal4-hPPARdelta transactivation assay in COS-7 cells (luciferase). To be noted: for Emax: COS-7, maximal relative activation vs reference, read-out: Gal4-hPPARδ(LBD) TOP (% ref); for EC50: Gal4-hPPARδ(LBD) transactivation; for Gal4-hPPARδ(LBD) TOP (% ref): maximal relative activation vs reference. The method, then: as §1

For another assay, the target named is T3, hPPARalpha (Homo sapiens, UniProt Q07869).
T3 construct: Gal4-hPPARα(LBD); Gal4 (fusion partner); expressed in transfected cells; host or cells: COS-7 (monkey kidney)
T3 sequence (Q07869 239-466 limits assumed): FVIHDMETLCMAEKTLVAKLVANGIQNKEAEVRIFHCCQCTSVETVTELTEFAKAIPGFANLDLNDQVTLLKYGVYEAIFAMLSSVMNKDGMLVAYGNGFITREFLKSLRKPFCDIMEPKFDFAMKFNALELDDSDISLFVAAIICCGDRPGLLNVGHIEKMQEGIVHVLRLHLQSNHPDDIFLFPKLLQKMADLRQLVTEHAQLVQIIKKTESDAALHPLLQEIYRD
Description: Gal4-hPPARalpha transactivation assay in COS-7 cells (luciferase). The settings on record: for Emax: COS-7, maximal relative activation vs reference, read-out: Gal4-hPPARα(LBD) TOP (% ref); for EC50: Gal4-hPPARα(LBD) transactivation; for Gal4-hPPARα(LBD) TOP (% ref): maximal relative activation vs reference. The method, then:
as §1

`COC(c1ccc(C(F)(F)F)cc1C(F)(F)F)C1CC1c1cc(C)c(OC(C)(C)C(=O)O)c(C)c1` (single isomer, unassigned) [Cpd 16-1, 2-(4-(2-((2,4-bis(trifluoromethyl)phenyl)(methoxy)methyl)cyclopropyl)-2,6-dimethylphenoxy)-2-methylpropanoic acid]: the values for the Emax at hPPARgamma, on hPPARdelta and at hPPARalpha were 80%, 60% and 40%, respectively. Moreover, the EC50 on hPPARgamma is 14 nM; on hPPARdelta, 44 nM; at hPPARalpha it was 108 nM.

As to `COC(c1ccc(OC(F)(F)F)cc1)C1CC1c1cc(C)c(OC(C)(C)C(=O)O)c(C)c1` (stereo not drawn) [Cpd 14-2-1, 2-(4-(2-(methoxy(4-(trifluoromethoxy)phenyl)methyl)cyclopropyl)-2,6-dimethylphenoxy)-2-methylpropanoic acid], the Emax was 90% on hPPARgamma and 44% at hPPARalpha. Besides, the EC50 at hPPARgamma was found to be 16 nM; at hPPARdelta (listed as cpd 14-2-1) it was 19 nM; at hPPARalpha (listed as cpd 14-2-1), 50 nM. Besides, the “Gal4-hPPARδ(LBD) TOP (% ref)” value on hPPARdelta (listed as cpd 14-2-1) stood at 78 % ref.

In the case of `COC(c1ccc(OC(F)(F)F)cc1)C1CC1c1ccc(OC(C)(C)C(=O)O)c(C)c1` (racemic) [Cpd 7-1, 2-(4-(2-(methoxy(4-(trifluoromethoxy)phenyl)methyl)cyclopropyl)-2-methylphenoxy)-2-methylpropanoic acid], the Emax is 55% on hPPARgamma, 90% at hPPARdelta and 42% at hPPARalpha. The figures for the EC50 on hPPARgamma, at hPPARdelta and at hPPARalpha were 45 nM, 35 nM and 265 nM, respectively.

Take `Cc1cc(C2CC2C(OCc2ccccc2)c2ccc(OC(F)(F)F)cc2)cc(C)c1OC(C)(C)C(=O)O` (racemic) [Cpd 11-2, 2-(4-(2-(benzyloxy(4-(trifluoromethoxy)phenyl)methyl)cyclopropyl)-2,6-dimethylphenoxy)-2-methylpropanoic acid]: the “Gal4-hPPARγ(LBD) TOP (% ref)” value at hPPARgamma came to 87 % ref. Also, at hPPARdelta, the “Gal4-hPPARδ(LBD) TOP (% ref)” value amounted to 67 % ref. Moreover, the “Gal4-hPPARα(LBD) TOP (% ref)” value at hPPARalpha is 42 % ref.

In the case of `CCCCOC(c1ccc(OC(F)(F)F)cc1)C1CC1c1cc(C)c(OC(C)(C)C(=O)O)c(C)c1` (racemic) [Cpd 5-2, 2-(4-(2-(butyloxy(4-(trifluoromethoxy)phenyl)methyl)cyclopropyl)-2,6-dimethylphenoxy)-2-methylpropanoic acid], on hPPARgamma, the “Gal4-hPPARγ(LBD) TOP (% ref)” value stood at 72 % ref. For the same compound, at hPPARdelta, the “Gal4-hPPARδ(LBD) TOP (% ref)” value is 60 % ref. Further, the “Gal4-hPPARα(LBD) TOP (% ref)” value at hPPARalpha stood at 47 % ref.

`COC(c1ccc(OC(F)(F)F)cc1)C1CC1c1cc(C)c(OC(C)(C)C(=O)O)c(C)c1` (racemic) [Cpd 14-2, 2-(4-(2-(methoxy(4-(trifluoromethoxy)phenyl)methyl)cyclopropyl)-2,6-dimethylphenoxy)-2-methylpropanoic acid]: the “Gal4-hPPARγ(LBD) TOP (% ref)” value at hPPARgamma (listed as cpd 14-2) was 58 % ref. Also, the “Gal4-hPPARδ(LBD) TOP (% ref)” value at hPPARdelta (listed as cpd 14-2) came to 74 % ref. On hPPARalpha (listed as cpd 14-2), the “Gal4-hPPARα(LBD) TOP (% ref)” value is recorded as 58 % ref.

For `COC(c1ccc(OC(F)(F)F)cc1)C1CC1c1cc(C)c(OC(C)(C)C(=O)O)c(C)c1` (single isomer, unassigned) [Cpd 14-1-1, 2-(4-(2-(methoxy(4-(trifluoromethoxy)phenyl)methyl)cyclopropyl)-2,6-dimethylphenoxy)-2-methylpropanoic acid], the EC50 on hPPARgamma came to 81 nM; at hPPARdelta, 27 nM; at hPPARalpha, 211 nM. Besides, at hPPARgamma (listed as cpd 14-1-1), the “Gal4-hPPARγ(LBD) TOP (% ref)” value is 78 % ref. On hPPARdelta (listed as cpd 14-1-1), the “Gal4-hPPARδ(LBD) TOP (% ref)” value amounted to 67 % ref. Further, at hPPARalpha (listed as cpd 14-1-1), the “Gal4-hPPARα(LBD) TOP (% ref)” value is 43 % ref.

Turning to `CCOC(c1ccc(OC(F)(F)F)cc1)C1CC1c1cc(C)c(OC(C)(C)C(=O)O)c(C)c1` (racemic) [Cpd 10-1, 2-(4-(2-(ethoxy(4-(trifluoromethoxy)phenyl)methyl)cyclopropyl)-2,6-dimethylphenoxy)-2-methylpropanoic acid], the results for the Emax at hPPARgamma, at hPPARdelta and on hPPARalpha were 74%, 90% and 51%, respectively. Moreover, the EC50 on hPPARgamma amounted to 95 nM; on hPPARdelta, 14 nM; on hPPARalpha, 38 nM.

For `CCCCOC(c1ccc(OC(F)(F)F)cc1)C1CC1c1cc(C)c(OC(C)(C)C(=O)O)c(C)c1` (single isomer, unassigned) [Cpd 5-2, 2-(4-(2-(butyloxy(4-(trifluoromethoxy)phenyl)methyl)cyclopropyl)-2,6-dimethylphenoxy)-2-methylpropanoic acid], the half-maximal effective concentration (EC50) worked out at 21 nM at hPPARgamma, 57 nM on hPPARdelta and 54 nM at hPPARalpha.

With `COC(c1ccc(C(F)(F)F)cc1C(F)(F)F)C1CC1c1cc(C)c(OC(C)(C)C(=O)O)c(C)c1` (single isomer, unassigned) [Cpd 16-2, 2-(4-(2-((2,4-bis(trifluoromethyl)phenyl)(methoxy)methyl)cyclopropyl)-2,6-dimethylphenoxy)-2-methylpropanoic acid], the figures for the EC50 on hPPARgamma, at hPPARdelta and at hPPARalpha were 2 nM, 12 nM and 50 nM, respectively.

As for `COC(c1ccc(OC(F)(F)F)cc1)C1CC1c1cc(C)c(OC(C)(C)C(=O)O)c(C)c1` (single isomer, unassigned) [Cpd 14-1, 2-(4-(2-(methoxy(4-(trifluoromethoxy)phenyl)methyl)cyclopropyl)-2,6-dimethylphenoxy)-2-methylpropanoic acid], the concentration giving a half-maximal response (EC50) amounted to 25 nM at hPPARgamma, 7 nM at hPPARdelta and 32 nM on hPPARalpha. In addition, on hPPARalpha, the Emax is 60%.

Consider `COC(c1ccc(OC(F)(F)F)cc1)C1CC1c1cc(C)c(OC(C)(C)C(=O)O)c(C)c1` (racemic) [Cpd 14-1, 2-(4-(2-(methoxy(4-(trifluoromethoxy)phenyl)methyl)cyclopropyl)-2,6-dimethylphenoxy)-2-methylpropanoic acid], for which the “Gal4-hPPARγ(LBD) TOP (% ref)” value at hPPARgamma (listed as cpd 14-1) was determined as 66 % ref. At hPPARdelta (listed as cpd 14-1), the “Gal4-hPPARδ(LBD) TOP (% ref)” value came out at 81 % ref.

As to `COC(c1ccc(SC)cc1)C1CC1c1cc(C)c(OC(C)(C)C(=O)O)c(C)c1` (single isomer, unassigned) [Cpd 3-1, 2-(4-(2-(methoxy(4-(methylthio)phenyl)methyl)cyclopropyl)-2,6-dimethylphenoxy)-2-methylpropanoic acid], the Emax at hPPARgamma worked out at 79%; on hPPARdelta it was 77%; on hPPARalpha, 57%. The EC50 on hPPARgamma came to 35 nM; at hPPARdelta it was 54 nM; at hPPARalpha, 105 nM.

As for `COC(c1ccc(OC(F)(F)F)cc1)C1CC1c1ccc(OC(C)(C)C(=O)O)c(C2CC2)c1` (racemic) [Cpd 21-1, 2-(2-cyclopropyl-4-(2-(methoxy(4-(trifluoromethoxy)phenyl)methyl)cyclopropyl)phenoxy)-2-methylpropanoic acid], the Emax on hPPARgamma was 48%; on hPPARdelta it was 88%; at hPPARalpha, 17%. Moreover, the concentration for a half-maximal effect (EC50) at hPPARgamma is 828 nM; on hPPARdelta, 3270 nM; at hPPARalpha it was 3650 nM.
